Patent publication US11446287B2, “Compounds and methods for EP300 or CBP modulation and indications therefor” (Opna Immuno-Oncology SA, priority 2019, dated 2022)

Target: T1, Recombinant human EP300 containing the bromodomain (EP300-BD (1040-1161)) (Homo sapiens, UniProt Q09472)
T1 construct: Recombinant human EP300 bromodomain (EP300-BD (1040-1161)); made in house; host or cells: E. coli BL21-CodonPlus (DE3), modified pET vector
T1 sequence (Q09472 1040-1161): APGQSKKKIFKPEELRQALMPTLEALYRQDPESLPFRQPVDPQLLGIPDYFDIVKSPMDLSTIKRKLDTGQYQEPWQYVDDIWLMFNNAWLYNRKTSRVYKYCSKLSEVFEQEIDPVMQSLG
Experiment: EP300 Alphascreen binding assay
In short: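 Displacement of a biotinylated acetyl-K56 histone H3 peptide from the N-His bromodomain construct (1040-1161) measured by AlphaScreen proximity, beads at 7.5 μg/ml final, read 60 min after addition. Protein, peptide and compound first incubated 1 h at room temperature, pH 7.5 HEPES buffer; IC50 by four-parameter logistic fit.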

Structure (SMILES)	IC50
Cc1nn(C(F)F)cc1-n1cc(-c2ccc(C(=O)O)cc2OC2CCC2)c2cc(-c3c(C)noc3C)cnc21 [P-0351, 3-cyclobutoxy-4-(1-(1-(difluoromethyl)-3-methyl-1H-pyrazol-4-yl)-5-(3,5-dimethylisoxazol-4-yl)-1H-pyrrolo[2,3-b]pyridin-3-yl)benzoic acid]	0.1 to 1000 nM
Cc1noc(C)c1-c1cnc2c(c1)c(-c1ccc(C(C)(C)C(=O)O)cc1)cn2C(c1ccccn1)C1CCCC1 (centres unmarked) [P-0032, 2-(4-(1-(cyclopentyl(pyridin-2-yl)methyl)-5-(3,5-dimethylisoxazol-4-yl)-1H-pyrrolo[2,3-b]pyridin-3-yl)phenyl)-2-methylpropanoic acid]	0.1 to 1000 nM
Cc1noc(C)c1-c1cnc2c(c1)c(-c1c(F)cc(C(=O)O)cc1OCC(F)F)cn2-c1cnc(N2CCC2)nc1 [P-0348, 4-(1-(2-(azetidin-1-yl)pyrimidin-5-yl)-5-(3,5-dimethylisoxazol-4-yl)-1H-pyrrolo[2,3-b]pyridin-3-yl)-3-(2,2-difluoroethoxy)-5-fluorobenzoic acid]	0.1 to 1000 nM
Cc1noc(C)c1-c1cnc2c(c1)c(-c1c(Cl)cc(C(=O)O)cc1OC1CCC1)cn2[C@H]1CCOC1 [P-0361, (S)-3-chloro-5-cyclobutoxy-4-(5-(3,5-dimethylisoxazol-4-yl)-1-(tetrahydrofuran-3-yl)-1H-pyrrolo[2,3-b]pyridin-3-yl)benzoic acid]	0.1 to 1000 nM
Cc1noc(C)c1-c1cnc2c(c1)c(-c1ccc(C(=O)O)cc1OCC(F)F)cn2[C@H]1CCOC1 [P-0325, (S)-3-(2,2-difluoroethoxy)-4-(5-(3,5-dimethylisoxazol-4-yl)-1-(tetrahydrofuran-3-yl)-1H-pyrrolo[2,3-b]pyridin-3-yl)benzoic acid]	0.1 to 1000 nM
Cc1noc(C)c1-c1cnc2c(c1)c(-c1c(Cl)cc(C(=O)O)cc1OCC(F)F)cn2-c1ccccc1 [P-0332, 3-chloro-5-(2,2-difluoroethoxy)-4-(5-(3,5-dimethylisoxazol-4-yl)-1-phenyl-1H-pyrrolo[2,3-b]pyridin-3-yl)benzoic acid]	0.1 to 1000 nM
Cc1noc(C)c1-c1cnc2c(c1)c(-c1ccc(C(=O)O)cc1OC1CCC1)cn2-c1cnc(N2CCC2)nc1 [P-0347, 4-(1-(2-(azetidin-1-yl)pyrimidin-5-yl)-5-(3,5-dimethylisoxazol-4-yl)-1H-pyrrolo[2,3-b]pyridin-3-yl)-3-cyclobutoxybenzoic acid]	0.1 to 1000 nM
Cc1nn(C(F)F)cc1-n1cc(-c2ccc(C(=O)O)cc2OCC(F)F)c2cc(-c3c(C)noc3C)cnc21 [P-0349, 3-(2,2-difluoroethoxy)-4-(1-(1-(difluoromethyl)-3-methyl-1H-pyrazol-4-yl)-5-(3,5-dimethylisoxazol-4-yl)-1H-pyrrolo[2,3-b]pyridin-3-yl)benzoic acid]	0.1 to 1000 nM
Cc1noc(C)c1-c1cnc2c(c1)c(-c1ccc(C(=O)O)cc1OC(F)(F)F)cn2C1(C)CCOC1 (centres unmarked) [P-0383, 4-(5-(3,5-dimethylisoxazol-4-yl)-1-(3-methyltetrahydrofuran-3-yl)-1H-pyrrolo[2,3-b]pyridin-3-yl)-3-(trifluoromethoxy)benzoic acid]	0.1 to 1000 nM
Cc1noc(C)c1-c1cnc2c(c1)c(-c1ccc(C(=O)O)cc1OC1CC1)cn2C1CCOCC1 [P-0379, 3-cyclopropoxy-4-(5-(3,5-dimethylisoxazol-4-yl)-1-(tetrahydro-2H-pyran-4-yl)-1H-pyrrolo[2,3-b]pyridin-3-yl)benzoic acid]	0.1 to 1000 nM
CCOc1cc(C(=O)O)c(F)cc1-c1cn(-c2ccc(F)cc2F)c2ncc(-c3c(C)noc3C)cc12 [P-0330, 4-(1-(2,4-difluorophenyl)-5-(3,5-dimethylisoxazol-4-yl)-1H-pyrrolo[2,3-b]pyridin-3-yl)-5-ethoxy-2-fluorobenzoic acid]	0.1 to 1000 nM
CCn1cc(-n2cc(-c3ccc(C(=O)O)cc3OCC(F)F)c3cc(-c4c(C)noc4C)cnc32)c(C)n1 [P-0326, 3-(2,2-difluoroethoxy)-4-(5-(3,5-dimethylisoxazol-4-yl)-1-(1-ethyl-3-methyl-1H-pyrazol-4-yl)-1H-pyrrolo[2,3-b]pyridin-3-yl)benzoic acid]	0.1 to 1000 nM
Cc1noc(C)c1-c1cnc2c(c1)c(-c1c(Cl)cc(C(=O)O)cc1OC1CCC1)cn2C1CCOCC1 [P-0358, 3-chloro-5-cyclobutoxy-4-(5-(3,5-dimethylisoxazol-4-yl)-1-(tetrahydro-2H-pyran-4-yl)-1H-pyrrolo[2,3-b]pyridin-3-yl)benzoic acid]	0.1 to 1000 nM
Cc1noc(C)c1-c1cnc2c(c1)c(-c1ccc(C(=O)O)cc1OC(F)(F)F)cn2-c1ccc(C(=O)O)cc1 [P-0322, 4-(1-(4-carboxyphenyl)-5-(3,5-dimethylisoxazol-4-yl)-1H-pyrrolo[2,3-b]pyridin-3-yl)-3-(trifluoromethoxy)benzoic acid]	0.1 to 1000 nM
Cc1noc(C)c1-c1cnc2c(c1)c(-c1ccc(C3(C(=O)O)CC3)cc1)cn2C(c1ccccn1)C1CCCC1 (centres unmarked) [P-0033, 1-(4-(1-(cyclopentyl(pyridin-2-yl)methyl)-5-(3,5-dimethylisoxazol-4-yl)-1H-pyrrolo[2,3-b]pyridin-3-yl)phenyl)cyclopropane-1-carboxylic acid]	0.1 to 1000 nM
CCOc1cc(C(=O)O)nc(OCC)c1-c1cn(C2CCOCC2)c2ncc(-c3c(C)noc3C)cc12 [P-0373, 5-(5-(3,5-dimethylisoxazol-4-yl)-1-(tetrahydro-2H-pyran-4-yl)-1H-pyrrolo[2,3-b]pyridin-3-yl)-4,6-diethoxypicolinic acid]	0.1 to 1000 nM
Cc1noc(C)c1-c1cnc2c(c1)c(-c1c(Cl)cc(C(=O)O)cc1OC(F)(F)F)cn2C1CCOCC1 [P-0355, 3-chloro-4-(5-(3,5-dimethylisoxazol-4-yl)-1-(tetrahydro-2H-pyran-4-yl)-1H-pyrrolo[2,3-b]pyridin-3-yl)-5-(trifluoromethoxy)benzoic acid]	0.1 to 1000 nM
Cc1noc(C)c1-c1cnc2c(c1)c(-c1ccc(C(=O)O)cc1OC(F)(F)F)c(C)n2-c1ncccc1C#N [P-0345, 4-(1-(3-cyanopyridin-2-yl)-5-(3,5-dimethylisoxazol-4-yl)-2-methyl-1H-pyrrolo[2,3-b]pyridin-3-yl)-3-(trifluoromethoxy)benzoic acid]	0.1 to 1000 nM
Cc1noc(C)c1-c1cnc2c(c1)c(-c1ccc(C(=O)O)cc1OC(F)(F)F)cn2C1CCC1 [P-0378, 4-(1-cyclobutyl-5-(3,5-dimethylisoxazol-4-yl)-1H-pyrrolo[2,3-b]pyridin-3-yl)-3-(trifluoromethoxy)benzoic acid]	0.1 to 1000 nM
CCOc1cc(C(=O)O)c(F)cc1-c1cn([C@H]2CCOC2)c2ncc(-c3c(C)noc3C)cc12 [P-0360, (S)-4-(5-(3,5-dimethylisoxazol-4-yl)-1-(tetrahydrofuran-3-yl)-1H-pyrrolo[2,3-b]pyridin-3-yl)-5-ethoxy-2-fluorobenzoic acid]	0.1 to 1000 nM
Cc1noc(C)c1-c1cnc2c(c1)c(-c1ccc(C(=O)O)cc1OC(F)(F)F)cn2C1(CC#N)CCC1 [P-0335, 4-(1-(1-(cyanomethyl)cyclobutyl)-5-(3,5-dimethylisoxazol-4-yl)-1H-pyrrolo[2,3-b]pyridin-3-yl)-3-(trifluoromethoxy)benzoic acid]	0.1 to 1000 nM
CCOc1nc(C(=O)O)ccc1-c1cn(C2CCOCC2)c2ncc(-c3c(C)noc3C)cc12 [P-0376, 5-(5-(3,5-dimethylisoxazol-4-yl)-1-(tetrahydro-2H-pyran-4-yl)-1H-pyrrolo[2,3-b]pyridin-3-yl)-6-ethoxypicolinic acid]	0.1 to 1000 nM
Cc1noc(C)c1-c1cnc2c(c1)c(-c1c(F)cc(C(=O)O)cc1OC(C)C)cn2C(C1CC1)C1CC1 [P-0369, 4-(1-(dicyclopropylmethyl)-5-(3,5-dimethylisoxazol-4-yl)-1H-pyrrolo[2,3-b]pyridin-3-yl)-3-fluoro-5-isopropoxybenzoic acid]	0.1 to 1000 nM
Cc1noc(C)c1-c1cnc2c(c1)c(-c1ccc(C(=O)O)cc1OC(F)(F)F)cn2-c1cnc(N)nc1 [P-0320, 4-(1-(2-aminopyrimidin-5-yl)-5-(3,5-dimethylisoxazol-4-yl)-1H-pyrrolo[2,3-b]pyridin-3-yl)-3-(trifluoromethoxy)benzoic acid]	0.1 to 1000 nM
Cc1noc(C)c1-c1cnc2c(c1)c(-c1ccc(C(F)(F)C(=O)O)cc1)cn2C(c1ccccn1)C1CCCC1 (centres unmarked) [P-0034, 2-(4-(1-(cyclopentyl(pyridin-2-yl)methyl)-5-(3,5-dimethylisoxazol-4-yl)-1H-pyrrolo[2,3-b]pyridin-3-yl)phenyl)-2,2-difluoroacetic acid]	0.1 to 1000 nM
COc1nc(C(=O)O)ccc1-c1cn(C2CCOCC2)c2ncc(-c3c(C)noc3C)cc12 [P-0368, 5-(5-(3,5-dimethylisoxazol-4-yl)-1-(tetrahydro-2H-pyran-4-yl)-1H-pyrrolo[2,3-b]pyridin-3-yl)-6-methoxypicolinic acid]	0.1 to 1000 nM
Cc1noc(C)c1-c1cnc2c(c1)c(-c1ccc(C(=O)O)cc1OC(F)(F)F)cn2-c1cncnc1 [P-0319, 4-(5-(3,5-dimethylisoxazol-4-yl)-1-(pyrimidin-5-yl)-1H-pyrrolo[2,3-b]pyridin-3-yl)-3-(trifluoromethoxy)benzoic acid]	0.1 to 1000 nM
Cc1noc(C)c1-c1cnc2c(c1)c(-c1ccc(C(=O)O)cc1OC1CC1)cn2-c1ncccc1C#N [P-0337, 4-(1-(3-cyanopyridin-2-yl)-5-(3,5-dimethylisoxazol-4-yl)-1H-pyrrolo[2,3-b]pyridin-3-yl)-3-cyclopropoxybenzoic acid]	0.1 to 1000 nM
Cc1noc(C)c1-c1cnc2c(c1)c(-c1c(Cl)cc(C(=O)O)cc1OCC(F)F)cn2[C@H]1CCOC1 [P-0333, (S)-3-chloro-5-(2,2-difluoroethoxy)-4-(5-(3,5-dimethylisoxazol-4-yl)-1-(tetrahydrofuran-3-yl)-1H-pyrrolo[2,3-b]pyridin-3-yl)benzoic acid]	0.1 to 1000 nM
